# Read-outs that look alike come from different tables or passages of the source.
# Columns and labels:
# MATE1 [1] = molecular target: T1, MATE1 (Homo sapiens, UniProt Q96FL8); assay: Uptake ratio in MATE1-overexpressing HEK293 cells vs empty vector (2.5 μM, 1 min, HPLC-MS/MS); format: cell-based; details: for MATE1 ratio in this study: Table S1
# T1 sequence (Q96FL8 1-570): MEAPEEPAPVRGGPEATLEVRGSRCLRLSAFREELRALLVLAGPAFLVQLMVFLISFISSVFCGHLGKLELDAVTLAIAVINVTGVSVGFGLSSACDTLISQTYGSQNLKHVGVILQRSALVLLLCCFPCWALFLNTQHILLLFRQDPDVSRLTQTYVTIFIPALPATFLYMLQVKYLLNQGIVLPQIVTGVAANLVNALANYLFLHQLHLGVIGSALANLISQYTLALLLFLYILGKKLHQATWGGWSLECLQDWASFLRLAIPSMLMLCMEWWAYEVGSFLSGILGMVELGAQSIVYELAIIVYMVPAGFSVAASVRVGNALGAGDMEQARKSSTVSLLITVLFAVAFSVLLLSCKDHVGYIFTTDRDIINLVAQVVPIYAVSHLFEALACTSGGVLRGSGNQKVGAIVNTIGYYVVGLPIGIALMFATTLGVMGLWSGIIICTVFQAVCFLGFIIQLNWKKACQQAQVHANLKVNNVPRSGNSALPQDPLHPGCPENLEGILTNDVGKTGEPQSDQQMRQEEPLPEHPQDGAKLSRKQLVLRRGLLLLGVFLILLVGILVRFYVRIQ
# MATE2K [2] = molecular target: T2, MATE2K (Homo sapiens, UniProt Q86VL8); assay: Uptake ratio in MATE2K-overexpressing HEK293 cells vs empty vector (2.5 μM, 1 min, HPLC-MS/MS); format: cell-based; details: for MATE2K ratio in this study: Table S1
# T2 sequence (Q86VL8 1-566 isoform Q86VL8-3): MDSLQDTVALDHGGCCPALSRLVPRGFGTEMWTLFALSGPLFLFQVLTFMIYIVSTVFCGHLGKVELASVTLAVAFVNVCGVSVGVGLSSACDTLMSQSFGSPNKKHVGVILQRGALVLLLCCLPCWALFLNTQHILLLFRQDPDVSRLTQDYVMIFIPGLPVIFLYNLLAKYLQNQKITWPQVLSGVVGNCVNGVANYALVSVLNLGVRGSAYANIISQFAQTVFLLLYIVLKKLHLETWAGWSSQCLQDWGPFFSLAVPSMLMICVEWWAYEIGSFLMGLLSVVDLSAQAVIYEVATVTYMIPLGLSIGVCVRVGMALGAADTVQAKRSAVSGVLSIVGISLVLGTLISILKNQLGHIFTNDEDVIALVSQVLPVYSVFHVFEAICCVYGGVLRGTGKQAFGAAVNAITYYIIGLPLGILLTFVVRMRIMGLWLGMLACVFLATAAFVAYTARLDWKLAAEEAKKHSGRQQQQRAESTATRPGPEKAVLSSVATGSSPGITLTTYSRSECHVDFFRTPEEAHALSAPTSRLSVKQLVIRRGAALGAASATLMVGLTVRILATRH
# hCMEC [3] = assay: TS DPH hCMEC (Table S2); format: cell-based, human; parameters: scale not given here
# hCMEC [4] = assay: TS MDAI hCMEC (Table S2); format: cell-based, human; parameters: scale not given here
# [5] = system: MATE1, MATE2K, OCT1, OCT2; assay: Substrate specificity and overlap among the four transporters (ratio cutoff 2); format: cell-based, human; details: transport ratio cutoff of 2
# MATE1 [6] = molecular target: T1, MATE1; assay: Concentration-dependent uptake (Michaelis-Menten) via MATE1 in HEK293 cells; details: HEK293, 1 min, net uptake; for Km: read-out: MATE1 KM
# MATE2K [7] = molecular target: T2, MATE2K; assay: Concentration-dependent uptake (Michaelis-Menten) via MATE2K in HEK293 cells; details: HEK293, 1 min, net uptake; for Km: read-out: MATE2K KM
# [8] = fold uptake over empty vector, 2.5 μM, 1 min
# [9] = mean ratio of uptake in MATE1-overexpressing HEK293 cells vs empty vector, 2.5 μM, 1 min
# [10] = mean ratio of uptake in MATE2K-overexpressing HEK293 cells vs empty vector, 2.5 μM, 1 min
Compound,MATE1 ratio (MATE1 [1]; [8]),MATE2K ratio (MATE2K [2]; [8]),TS DPH hCMEC (hCMEC [3]; Table S2),TS MDAI hCMEC (hCMEC [4]; Table S2),MATE1 Vmax (MATE1 [6]),Km (MATE1 [6]) [µM],MATE2K Vmax (MATE2K [7]),Km (MATE2K [7]) [µM],further results
NC(=O)c1cnccn1 [Pyrazinamide],0.97,1.05,0.95,1.08,,,,,"MATE1 (MATE1 [1]; uptake ratio MATE1-overexpressing vs empty-vector HEK293 cells, 2.5 μM, 1 min, mean): 0.97; MATE2 (MATE2K [2]; uptake ratio MATE2K-overexpressing vs empty-vector HEK293 cells, 2.5 μM, 1 min, mean): 1.05"
O=C1CC2(CCCC2)CC(=O)N1CCCCN1CCN(c2ncccn2)CC1 [Buspirone],,,,,,,,,MATE1 (uptake ratio) (MATE1 [1]): 2.36; MATE1 ratio (MATE1 [1]): 2.36; MATE2 (uptake ratio) (MATE2K [2]): 1.36; MATE2K ratio (MATE2K [2]): 1.36; TS DPH hCMEC (hCMEC [3]): 0.56; TS MDAI hCMEC (hCMEC [4]): 0.64
C[N+](C)(C)CCO [Choline],1.13,1.09,1.04,1.27,,,,,MATE1 (uptake ratio) (MATE1 [1]; [9]): 1.13; MATE2 (uptake ratio) (MATE2K [2]; [10]): 1.09
thyrotropin-releasing hormone,,,,,,,,,"Substrate specificity among MATE1, MATE2K, OCT1, OCT2 [5]: no substrates of the four transporters"
CC(C)NCC(O)COc1cccc2[nH]ccc12 (stereo not shown) [Pindolol],1.84,1.18,0.59,0.83,,,,,
CC12CC3CC(C)(C1)CC(N)(C3)C2 [Memantine],1.03,1.18,0.24,0.14,,,,,"MATE1 ratio in this study (MATE1 [1]; 2.5 μM, 1 min): 1.03; MATE2K ratio in this study (MATE2K [2]; 2.5 μM, 1 min): 1.18"
CCC1(c2cccc(O)c2)CCCCN(C)C1 (stereo not shown) [Meptazinol],,,,,,,,,MATE1 ratio (MATE1 [1]): 1.21; MATE2K ratio (MATE2K [2]): 1.57; TS DPH hCMEC (hCMEC [3]): 0.40; TS MDAI hCMEC (hCMEC [4]): 0.41
[H]/N=C(/N)N/C(=N/[H])NCCc1ccccc1 [Phenformin],19.54,3.01,,,8451 pmol × mg protein^–1 × min^–1,101,1361 pmol × mg protein^–1 × min^–1,73.1,
CCOC(=O)[C@]1(c2ccccc2)CCC=C[C@H]1NC [Nortilidine],,,,,,,,,MATE1 ratio (MATE1 [1]): 1.19; MATE2K ratio (MATE2K [2]): 1.42; TS DPH hCMEC (hCMEC [3]): 0.53; TS MDAI hCMEC (hCMEC [4]): 0.52
CC(=O)OC(C)C[N+](C)(C)C (stereo not shown) [Methacholine],21.58,2.57,,,"17,843 pmol × mg protein^–1 × min^–1",1990,1240 pmol × mg protein^–1 × min^–1,1400,
NCCc1ccc(O)c(O)c1 [Dopamine],39.94,1.97,,,"10,148 pmol × mg protein^–1 × min^–1",530,1219 pmol × mg protein^–1 × min^–1,961,
Nc1nc(=O)n([C@@H]2CS[C@H](CO)O2)cc1F [Emtricitabine],3.22,2.88,,,4523 pmol × mg protein^–1 × min^–1,992,2634 pmol × mg protein^–1 × min^–1,873,"MATE1 ratio in this study (MATE1 [1]; 2.5 μM, 1 min): 3.22; MATE2K ratio in this study (MATE2K [2]; 2.5 μM, 1 min): 2.88"
"N[C@@H]1CON=C1O [Cycloserine (L), Cycloserine]",1.19,1.10,1.34,0.76,,,,,
NC[C@H](O)c1ccc(O)c(O)c1 [Norepinephrine],,,,,"18,720 pmol × mg protein^–1 × min^–1",1870,673 pmol × mg protein^–1 × min^–1,1150,
OC(CCN1CCCCC1)(c1ccccc1)C1CC2C=CC1C2 (stereo not shown) [Biperiden],1.24,1.15,0.25,0.26,,,,,MATE1 (uptake ratio) (MATE1 [1]; [9]): 1.24; MATE2 (uptake ratio) (MATE2K [2]; [10]): 1.15
CNC[C@H](O)c1ccc(O)c(O)c1 [Epinephrine],,,,,"22,773 pmol × mg protein^–1 × min^–1",1080,2968 pmol × mg protein^–1 × min^–1,1510,
Fc1ccc([C@@H]2CCNC[C@H]2COc2ccc3c(c2)OCO3)cc1 [Paroxetine],1.92,1.79,0.13,0.07,,,,,

# Source: PMC12207590, “Substrate Specificity of the Organic Cation Transporters MATE1 and MATE2K and Functional Overlap with OCT1 and OCT2” (Journal of Medicinal Chemistry, 2025)
